25 compounds from patent publication US10233182B2, “Substituted spirocyclic inhibitors of autotaxin” (X-Rx, Inc., priority 2014, dated 2019) can be followed below.

Structures can show the parent of a compound that is named as a salt. Where only a bound is given, the exact number is not on record here.

In this assay the target is Autotaxin (Homo sapiens (Human), UniProt Q13822). Briefly: Autotaxin LPC Cascade Assay. It is filed as biochemical. Conditions: Autotaxin 5 nM, LPC 100 μM, choline oxidase/HRP/Ampliflu Red fluorescence read-out, 2% DMSO, RT; read-out: IC50 ATX Activity. The method, then:
Autotaxin LPC Cascade Assay:
HA130 and Test Compounds:
Prepare a 1 mM stock of HA130 and a 3 mM stock of each compound in 100% DMSO. Perform a 1:3 serial dilution in DMSO (transfer 5 l of compound to 10 l of DMSO). Add 240 l of buffer to generate a top working concentration of 40 µM (HA130) and 120 µM (test compound) in 4% DMSO.
Ampliflu Red—Prepare a stock of 5 mM from 100 mM in 100% DMSO. Further dilute to a working concentration of 400 μM in buffer (8% DMSO).
Together with compound this yields a 2% DMSO final concentration.
Choline Oxidase/HRP—0.8 U/mL CO and 8 U/mL HRP.
Incubate for 10 mins at RT. Add 5 µl of LPC and incubate for 1 hr on the plate shaker. Prepare the CO/HRP and AR immediately prior to use. Add 2.5 l of CO/HRP and follow with 2.5 l AR. Note order of addition, CO/HRP mix before AR. Read fluorescence intensity (ex/em: 530/590 nm) kinetically for 30 min at RT on the Tecan M1000.
As to `CN1CN(c2ccc(C(=O)O)cc2)C2(CCN(C(=O)[C@H](NC(=O)c3cc(C(F)(F)F)ccc3F)C3CCCC3)CC2)C1=O` [Example 156, (R)-4-(8-(2-Cyclopentyl-2-(2-fluoro-5-(trifluoromethyl)benzamido)acetyl)-3-methyl-4-oxo-1,3,8-triazaspiro[4.5]decan-1-yl)benzoic Acid], the half-maximal inhibitory concentration (IC50) was below 500 nM.
In the case of `CC(C)[C@@H](NC(=O)c1cc(OC(F)(F)F)ccc1F)C(=O)N1CCC2(CC1)C(=O)N(C)C(=O)N2c1ccc(C(=O)O)cc1` [Example 167, (R)-4-(8-(2-(2-Fluoro-5-(trifluoromethoxy)benzamido)-3-methylbutanoyl)-3-methyl-2,4-dioxo-1,3,8-triazaspiro[4.5]decan-1-yl)benzoic Acid], the IC50 was below 500 nM.
Then `Cc1ccc(F)c(C(=O)N[C@@H](C(=O)N2CCC3(CC2)C(=O)N(C)CN3c2ccccc2)C(C)C)c1` [Example 141, (R)-2-Fluoro-5-methyl-N-(3-methyl-1-(3-methyl-4-oxo-1-phenyl-1,3,8-triazaspiro[4.5]decan-8-yl)-1-oxobutan-2-yl)benzamide], with below 500 nM.
Consider `CCc1cccc(C(=O)N[C@@H](C(=O)N2CCC3(CC2)C(=O)N(C)C(=O)N3c2ccccc2)C(C)C)c1F` [Example 34, (R)-3-Ethyl-2-fluoro-N-(3-methyl-1-(3-methyl-2,4-dioxo-1-phenyl-1,3,8-triazaspiro[4.5]decan-8-yl)-1-oxobutan-2-yl)benzamide], for which the 50% inhibitory concentration (IC50) was at least 1000 nM.
Then `CN1C(=O)N(Cc2ccc3nccnc3c2)C2(CCN(C(=O)[C@H](NC(=O)c3cc(C(F)(F)F)ccc3F)C3CCCC3)CC2)C1=O` [Example 112, (R)—N-(1-Cyclopentyl-2-(3-methyl-2,4-dioxo-1-(quinoxalin-6-ylmethyl)-1,3,8-triazaspiro[4.5]decan-8-yl)-2-oxoethyl)-2-fluoro-5-(trifluoromethyl)benzamide], with below 500 nM; and `CC(C)[C@@H](NC(=O)c1cc(Cl)cc(Cl)c1)C(=O)N1CCC2(CC1)C(=O)N(C)C(=O)N2c1ccccc1` [Example 48, (R)-3,5-Dichloro-N-(3-methyl-1-(3-methyl-2,4-dioxo-1-phenyl-1,3,8-triazaspiro[4.5]decan-8-yl)-1-oxobutan-2-yl)benzamide], with below 500 nM.
Then `CC(C)[C@@H](NC(=O)c1cc(C(F)(F)F)ccc1F)C(=O)N1CCC2(CC1)C(=O)N(C)C(=O)N2C1CCOCC1` [Example 77, (R)-2-Fluoro-N-(3-methyl-1-(3-methyl-2,4-dioxo-1-(tetrahydro-2H-pyran-4-yl)-1,3,8-triazaspiro[4.5]decan-8-yl)-1-oxobutan-2-yl)-5-(trifluoromethyl)benzamide], with 500 to 1000 nM; and `CC(C)[C@@H](NC(=O)c1cc(C(F)(F)F)ccc1F)C(=O)N1CCC2(CC1)C(=O)N(C)C(=O)N2c1ccc(OCC2COC2)cc1` [Example 83, (R)-2-Fluoro-N-(3-methyl-1-(3-methyl-1-(4-(oxetan-3-ylmethoxy)phenyl)-2,4-dioxo-1,3,8-triazaspiro[4.5]decan-8-yl)-1-oxobutan-2-yl)-5-(trifluoromethyl)benzamide], with below 500 nM.
Then `CCc1ccc(F)c(C(=O)N[C@@H](C(=O)N2CCC3(CC2)C(=O)N(C)[C@H](C)N3c2ccc(C(=O)O)cc2)C(C)C)c1` (single isomer, unassigned) [Example 210], with below 500 nM; and `CC(C)[C@@H](NC(=O)c1cc(C(F)(F)F)ccc1F)C(=O)N1CCC2(CC1)C(=O)N(C)CN2c1ccc(NS(C)(=O)=O)cc1` [Example 174, (R)-2-Fluoro-N-(3-methyl-1-(3-methyl-1-(4-(methylsulfonamido)phenyl)-4-oxo-1,3,8-triazaspiro[4.5]decan-8-yl)-1-oxobutan-2-yl)-5-(trifluoromethyl)benzamide], with below 500 nM.
In the case of `Cc1ccc(F)c(C(=O)N[C@@H](C(=O)N2CCC3(CC2)C(=O)N(C)C(=O)N3c2ccc3[nH]ncc3c2)C(C)C)c1` [Example 56, (R)—N-(1-(1-(1H-Indazol-5-yl)-3-methyl-2,4-dioxo-1,3,8-triazaspiro[4.5]decan-8-yl)-3-methyl-1-oxobutan-2-yl)-2-fluoro-5-methylbenzamide], the IC50 was below 500 nM.
The figure for `COc1ccc(N2C(=O)N(C)C(=O)C23CCN(C(=O)[C@H](NC(=O)c2cc(C4CC4)ccc2F)[C@@H](C)OC)CC3)cc1` [Example 49, 5-Cyclopropyl-2-fluoro-N-((2R,3R)-3-methoxy-1-(1-(4-methoxyphenyl)-3-methyl-2,4-dioxo-1,3,8-triazaspiro[4.5]decan-8-yl)-1-oxobutan-2-yl)benzamide] is below 500 nM; for `CC(C)[C@@H](NC(=O)c1cc(C(F)(F)F)ccc1F)C(=O)N1CCC2(CC1)C(=O)N(C)[C@@H](C)N2c1ccc(C(=O)O)cc1` [Example 213, 4-((S)-8-((R)-2-(2-Fluoro-5-(trifluoromethyl)benzamido)-3-methylbutanoyl)-2,3-dimethyl-4-oxo-1,3,8-triazaspiro[4.5]decan-1-yl)benzoic Acid] it is below 500 nM.
Turning to `CC(C)[C@@H](NC(=O)c1cc(C(F)(F)F)ccc1F)C(=O)N1CCC2(CC1)NC(=O)N(C)C2=O` [Example 126, (R)-2-Fluoro-N-(3-methyl-1-(3-methyl-2,4-dioxo-1,3,8-triazaspiro[4.5]decan-8-yl)-1-oxobutan-2-yl)-5-(trifluoromethyl)benzamide], the concentration for half-maximal inhibition (IC50) was at least 1000 nM.
Then `CC(C)[C@@H](NC(=O)c1cc(C2CC2)ccc1F)C(=O)N1CCC2(CC1)C(=O)N(C)C(=O)N2c1ccccc1` [Example 42, (R)-5-Cyclopropyl-2-fluoro-N-(3-methyl-1-(3-methyl-2,4-dioxo-1-phenyl-1,3,8-triazaspiro[4.5]decan-8-yl)-1-oxobutan-2-yl)benzamide], with below 500 nM; and `CCc1ccc(F)c(C(=O)N[C@@H](C(=O)N2CCC3(CC2)C(=O)N(C)C(=O)N3c2ccc(OC)cc2)C(C)C)c1` [Example 50, (R)-5-Ethyl-2-fluoro-N-(1-(1-(4-methoxyphenyl)-3-methyl-2,4-dioxo-1,3,8-triazaspiro[4.5]decan-8-yl)-3-methyl-1-oxobutan-2-yl)benzamide], with below 500 nM.
With `CC(C)[C@@H](NC(=O)c1cc(C(F)(F)F)ccc1F)C(=O)N1CCC2(CC1)C(=O)N(C)CN2c1ccc(OCCN(C)C)cc1` [Example 171, (R)—N-(1-(1-(4-(2-(Dimethylamino)ethoxy)phenyl)-3-methyl-4-oxo-1,3,8-triazaspiro[4.5]decan-8-yl)-3-methyl-1-oxobutan-2-yl)-2-fluoro-5-(trifluoromethyl)benzamide trifluoroacetic Acid Salt], the concentration for half-maximal inhibition (IC50) is below 500 nM.
Then `CN1C(=O)N(c2ccc3[nH]ncc3c2)C2(CCN(C(=O)[C@H](NC(=O)c3cc(C(F)(F)F)ccc3F)C3CCCC3)CC2)C1=O` [Example 57, (R)—N-(2-(1-(1H-Indazol-5-yl)-3-methyl-2,4-dioxo-1,3,8-triazaspiro[4.5]decan-8-yl)-1-cyclopentyl-2-oxoethyl)-2-fluoro-5-(trifluoromethyl)benzamide], with below 500 nM; and `Cc1cccc(C(=O)N[C@@H](C(=O)N2CCC3(CC2)C(=O)N(C)CN3c2cccc(C(N)=O)c2)C(C)C)c1F` [Example 146, (R)—N-(1-(1-(3-Carbamoylphenyl)-3-methyl-4-oxo-1,3,8-triazaspiro[4.5]decan-8-yl)-3-methyl-1-oxobutan-2-yl)-2-fluoro-3-methylbenzamide], with at least 1000 nM.
`COC(=O)Nc1ccc(N2CN(C)C(=O)C23CCN(C(=O)[C@H](NC(=O)c2cc(C(F)(F)F)ccc2F)C(C)C)CC3)cc1` [Example 175, (R)-Methyl-4-(8-(2-(2-fluoro-5-(trifluoromethyl)benzamido)-3-methylbutanoyl)-3-methyl-4-oxo-1,3,8-triazaspiro[4.5]decan-1-yl)phenylcarbamate]: the concentration for half-maximal inhibition (IC50) was below 500 nM.
Turning to `[2H]c1ccc(N2C(=O)N(C)C(=O)C23CCN(C(=O)[C@H](NC(=O)c2cc(C(F)(F)F)ccc2F)C(C)C)CC3)cc1` [Example 190], the IC50 was below 500 nM.
For the compound `COc1cc(CN2C(=O)N(C)C(=O)C23CCN(C(=O)[C@H](NC(=O)c2cc(C(F)(F)F)ccc2F)C(C)C)CC3)ccn1` [Example 94, (R)-2-Fluoro-N-(1-(1-((2-methoxypyridin-4-yl)methyl)-3-methyl-2,4-dioxo-1,3,8-triazaspiro[4.5]decan-8-yl)-3-methyl-1-oxobutan-2-yl)-5-(trifluoromethyl)benzamide], the half-inhibitory concentration (IC50) was below 500 nM.
Regarding `Cc1cccc(C(=O)N[C@@H](C(=O)N2CCC3(CC2)C(=O)N(C)CN3c2ccccc2)C2CCOCC2)c1` (single isomer, unassigned) [Example 129], the half-maximal inhibitory concentration (IC50) was in the range of 500 to 1000 nM.
`Cc1cc(N2CN(C)C(=O)C23CCN(C(=O)[C@H](NC(=O)c2cc(C(F)(F)F)ccc2F)C(C)C)CC3)ccc1C(=O)O` [Example 158, (R)-4-(8-(2-(2-Fluoro-5-(trifluoromethyl)benzamido)-3-methylbutanoyl)-3-methy-4-oxo-1,3,8-triazaspiro[4.5]decan-1-yl)-2-methylbenzoic Acid]: the IC50 was at least 1000 nM.
Regarding `CC(C)[C@@H](NC(=O)c1cc(C(F)(F)F)ccc1F)C(=O)N1CCC2(CC1)C(=O)N(C)C(=O)N2c1ccc(=O)[nH]c1` [Example 22, (R)-2-Fluoro-N-(3-methyl-1-(3-methyl-2,4-dioxo-1-(6-oxo-1,6-dihydropyridin-3-yl)-1,3,8-triazaspiro[4.5]decan-8-yl)-1-oxobutan-2-yl)-5-(trifluoromethyl)benzamide], the IC50 was at least 1000 nM.
